Measured values: patent EP1175417B1, “SUBSTITUTED BENZOLACTAM COMPOUNDS” (Pfizer Products Inc., priority 1999, dated 2000)
Counter-ions that a name gives are not always drawn.

What was measured:
[1] = molecular target: T1, substance P receptor sites in IM-9 cells (Homo sapiens, UniProt P25103); experiment: IM-9 binding assay (inhibition of [^3H]SP binding); conditions: inhibition of [^3H]SP binding to human IM-9 cells
T1 construct: endogenous in cells; host or cells: human IM-9 cells
Method: The activity of the compounds of the present invention, as substance P antagonists, is determined by their ability to inhibit the binding of substance P at its receptor sites in IM-9 cells employing radioactive ligands. The substance P antagonist activity of the herein described compounds is evaluated by using the standard assay procedure described by D. G. Payan et al as reported in J. Immunology, 133, 3260 (1984). This method essentially involves determining the concentration of the individual compound required to reduce by 50% the amount of radiolabeled substance P ligands at their receptor sites in said isolated cow tissues or IM-9 cells, thereby affording characteristic IC50 values for each compound tested. More specifically, inhibition of [^3H]SP binding to human IM-9 cells by compounds are determined in assay buffer (50 mM Tris-HCl (pH 7.4), 1 mM MnCl2, 0.02 % bovine serum albumin, bacitracin (40 µg/ml), leupeptin (4 µg/ml), chymostatin (2 µg/ml) and phosphoramidon (30 µg/ml)). The reaction is initiated by the addition of cells to assay buffer containing 0.56 nM [^3H]SP and various concentrations of compounds (total volume; 0.5 ml) and allowed to incubate for 120 min at 4 °C. […] Nonspecific binding is defined as the radioactivity remaining in the presence of 1 µM SP. The filters are placed into tubes and counted using liquid scintillation counter.

gerbils = experiment: [Sar^9, Met(O2)^11]substance P-induced tapping test; type: in vivo; conditions: Meriones unguiculatus, at 0.3mg/kg scoring
Method: More specifically, gerbils are lightly anesthetized with ether and the skull surface is exposed. […] Following injection, gerbils are placed in 1 L beaker individually and monitored for repetitive hind paw tapping. Some compounds prepared in the following Examples were tested in accordance with these testing methods.

Ca^2+ channel = molecular target: T2, Ca^2+ channel (Rattus norvegicus, UniProt P22002); experiment: verapamil binding study in rat heart membrane preparation; conditions: [^3H]desmethoxyverapamil binding
T2 construct: from tissue; host or cells: rat heart membrane preparation
Method: The adverse effect on Ca^2+ channel binding affinity is determined by verapamil binding study in rat heart membrane preparation. More specifically, verapamil binding study is performed as previously described by Reynolds et al, J. Pharmacol. Exp. Ther., 237, 731 (1986). Briefly, incubations are initiated by the addition of tissue to tubes containing 0.25 nM [^3H]desmethoxyverapamil and various concentrations of compounds (total volume 1 ml). Nonspecific binding is defined as radioligand binding remaining in the presence of 3-10 µM methoxyverapamil.

T1 sequence (P25103 whole entry): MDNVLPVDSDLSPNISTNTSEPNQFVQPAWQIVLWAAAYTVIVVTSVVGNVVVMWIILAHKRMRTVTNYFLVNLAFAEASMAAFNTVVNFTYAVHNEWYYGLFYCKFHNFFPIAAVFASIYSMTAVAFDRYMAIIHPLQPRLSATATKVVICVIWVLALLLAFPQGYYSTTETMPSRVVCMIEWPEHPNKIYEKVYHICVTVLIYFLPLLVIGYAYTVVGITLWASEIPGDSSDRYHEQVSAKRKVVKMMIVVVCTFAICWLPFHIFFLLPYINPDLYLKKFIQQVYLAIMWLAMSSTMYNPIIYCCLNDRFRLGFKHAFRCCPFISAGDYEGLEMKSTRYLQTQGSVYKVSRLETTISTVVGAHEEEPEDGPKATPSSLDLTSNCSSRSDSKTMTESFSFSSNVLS
T2 sequence (P22002 whole entry, other chains not shown): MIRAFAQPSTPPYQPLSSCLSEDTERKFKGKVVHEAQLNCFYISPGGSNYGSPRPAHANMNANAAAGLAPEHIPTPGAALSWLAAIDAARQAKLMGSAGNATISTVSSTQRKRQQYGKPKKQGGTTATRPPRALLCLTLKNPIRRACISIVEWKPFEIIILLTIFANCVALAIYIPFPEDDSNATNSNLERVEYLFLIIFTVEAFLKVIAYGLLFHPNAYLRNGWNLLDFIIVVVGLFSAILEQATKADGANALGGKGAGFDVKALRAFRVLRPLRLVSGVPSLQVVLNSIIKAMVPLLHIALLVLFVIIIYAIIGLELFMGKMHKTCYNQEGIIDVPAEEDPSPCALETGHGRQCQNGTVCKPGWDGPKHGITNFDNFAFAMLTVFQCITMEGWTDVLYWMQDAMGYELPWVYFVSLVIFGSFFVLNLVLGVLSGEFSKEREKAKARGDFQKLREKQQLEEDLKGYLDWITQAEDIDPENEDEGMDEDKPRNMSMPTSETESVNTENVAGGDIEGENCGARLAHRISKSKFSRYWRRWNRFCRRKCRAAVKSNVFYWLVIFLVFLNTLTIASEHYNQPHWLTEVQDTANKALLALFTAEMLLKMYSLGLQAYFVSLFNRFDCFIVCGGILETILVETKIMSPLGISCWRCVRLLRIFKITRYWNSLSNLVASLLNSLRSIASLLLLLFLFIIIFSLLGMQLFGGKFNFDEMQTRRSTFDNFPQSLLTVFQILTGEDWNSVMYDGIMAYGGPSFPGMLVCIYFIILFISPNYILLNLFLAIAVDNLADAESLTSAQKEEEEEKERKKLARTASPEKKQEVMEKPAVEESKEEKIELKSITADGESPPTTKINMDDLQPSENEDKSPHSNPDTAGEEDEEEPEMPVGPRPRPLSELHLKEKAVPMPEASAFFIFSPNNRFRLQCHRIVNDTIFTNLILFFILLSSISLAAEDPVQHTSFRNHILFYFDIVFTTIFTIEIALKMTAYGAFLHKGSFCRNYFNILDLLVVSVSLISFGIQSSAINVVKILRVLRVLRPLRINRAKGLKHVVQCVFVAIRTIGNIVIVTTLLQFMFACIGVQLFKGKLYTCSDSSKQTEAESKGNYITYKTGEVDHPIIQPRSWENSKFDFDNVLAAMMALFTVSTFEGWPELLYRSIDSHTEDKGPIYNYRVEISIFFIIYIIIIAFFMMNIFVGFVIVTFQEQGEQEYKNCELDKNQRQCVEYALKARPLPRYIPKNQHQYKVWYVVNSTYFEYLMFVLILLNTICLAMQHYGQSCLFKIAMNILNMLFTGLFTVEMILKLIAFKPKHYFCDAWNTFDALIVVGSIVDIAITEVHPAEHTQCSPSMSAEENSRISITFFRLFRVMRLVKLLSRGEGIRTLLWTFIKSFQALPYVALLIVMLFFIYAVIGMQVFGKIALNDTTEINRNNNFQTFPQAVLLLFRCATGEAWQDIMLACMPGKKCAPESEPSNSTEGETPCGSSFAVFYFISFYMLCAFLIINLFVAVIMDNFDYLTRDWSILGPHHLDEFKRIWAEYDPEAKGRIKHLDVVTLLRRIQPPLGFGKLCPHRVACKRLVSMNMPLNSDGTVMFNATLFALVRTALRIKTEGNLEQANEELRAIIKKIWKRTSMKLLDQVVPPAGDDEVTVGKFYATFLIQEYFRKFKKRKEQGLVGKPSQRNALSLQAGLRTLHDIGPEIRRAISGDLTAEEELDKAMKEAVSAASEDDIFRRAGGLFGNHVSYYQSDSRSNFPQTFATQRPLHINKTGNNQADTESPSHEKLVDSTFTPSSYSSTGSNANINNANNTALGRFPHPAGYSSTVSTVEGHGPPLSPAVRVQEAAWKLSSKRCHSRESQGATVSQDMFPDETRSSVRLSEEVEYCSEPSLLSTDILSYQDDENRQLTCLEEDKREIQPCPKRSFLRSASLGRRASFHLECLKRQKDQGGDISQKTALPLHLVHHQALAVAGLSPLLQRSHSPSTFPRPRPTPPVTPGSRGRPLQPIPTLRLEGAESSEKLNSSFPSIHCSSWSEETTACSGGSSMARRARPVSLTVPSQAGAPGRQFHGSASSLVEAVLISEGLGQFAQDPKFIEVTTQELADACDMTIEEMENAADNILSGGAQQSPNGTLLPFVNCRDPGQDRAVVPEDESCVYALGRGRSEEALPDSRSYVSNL
T2 sequence (P54290 25-944 partner limits assumed, other chains not shown): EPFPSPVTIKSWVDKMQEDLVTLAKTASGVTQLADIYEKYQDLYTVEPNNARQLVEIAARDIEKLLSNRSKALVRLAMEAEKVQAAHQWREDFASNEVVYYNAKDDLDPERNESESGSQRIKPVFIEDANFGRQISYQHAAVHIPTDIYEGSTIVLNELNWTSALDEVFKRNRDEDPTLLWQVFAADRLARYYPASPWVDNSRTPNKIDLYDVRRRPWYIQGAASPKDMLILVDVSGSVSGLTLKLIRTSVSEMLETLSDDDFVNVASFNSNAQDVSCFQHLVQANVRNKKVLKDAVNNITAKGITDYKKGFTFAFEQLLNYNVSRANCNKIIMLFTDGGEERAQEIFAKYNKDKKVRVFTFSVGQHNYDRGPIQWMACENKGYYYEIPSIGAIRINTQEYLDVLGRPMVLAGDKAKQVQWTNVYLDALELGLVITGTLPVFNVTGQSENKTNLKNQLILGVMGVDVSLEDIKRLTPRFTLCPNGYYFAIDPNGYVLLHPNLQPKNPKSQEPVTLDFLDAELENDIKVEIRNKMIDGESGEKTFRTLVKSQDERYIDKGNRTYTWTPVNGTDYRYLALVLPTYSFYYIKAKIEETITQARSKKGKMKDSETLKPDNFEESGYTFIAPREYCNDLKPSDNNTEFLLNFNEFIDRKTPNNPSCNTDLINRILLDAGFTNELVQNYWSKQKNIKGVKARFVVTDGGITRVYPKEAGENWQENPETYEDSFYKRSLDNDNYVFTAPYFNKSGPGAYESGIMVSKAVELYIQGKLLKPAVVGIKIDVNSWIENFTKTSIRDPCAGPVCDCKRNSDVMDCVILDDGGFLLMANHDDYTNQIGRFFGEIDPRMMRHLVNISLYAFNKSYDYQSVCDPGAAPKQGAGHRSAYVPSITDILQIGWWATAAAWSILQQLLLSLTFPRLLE
T2 sequence (P54290 945-1091 partner limits assumed, other chains not shown): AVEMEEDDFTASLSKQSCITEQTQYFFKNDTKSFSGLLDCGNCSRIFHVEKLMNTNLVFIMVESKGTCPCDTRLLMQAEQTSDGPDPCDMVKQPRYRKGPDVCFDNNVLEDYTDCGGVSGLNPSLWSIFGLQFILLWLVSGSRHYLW

- IC50 [1]: < 0.1 nM
- IC50 (Ca^2+ channel): > 3000 nM
SMILES: COc1cc2c(cc1CN[C@H]1CCCN[C@H]1c1ccccc1)N(C)C(=O)CC2 [Compound 21, (2S,3S)-3-(6-Methoxy-1-methyl-2-oxo-1,2,3,4-tetrahydroquinolin-7-yl)methylamino-2-phenylpiperidine dihydrochloride]
- inhibition at 0.3 mg/kg (gerbils): 52%
